Test [1] deals with Cultured Neurocyte (cerebral cortexes), Glutamic Acid Toxicity. Nature of the test: Cultured-Neurocyte Protective Effect against Glutamic Acid Toxicity (LDH leakage). The class given is cell-based, rat (Wistar, fetal). The note with it: Rattus norvegicus, Cerebral cortex neuron, 10 mM glutamic acid, 24 hours at 37° C., read-out: ED50 (50% effective dose), neurocyte protective effect against glutamic acid toxicity. From the text:
It is known that delayed cerebral-neuronal death is induced if blood flow to the brain is transiently stopped by transient ischemia, anoxia, hypoglycemia, or trauma [T. Kirino, Brain Research, 239, 57 (1982).]. The excitatory toxicity of excitatory neurotransmitters, such as glutamic acid, which is excessively released when associated with ischemia is considered as the cause of the neurocyte damage [S. M. Rotherman and J. W. Olney, Trends in Neuroscience, 10, 299 (1987).]. A compound which protects neurocytes from the cytotoxicity of glutamic acid will be promising as a preventive and therapeutic agent for cerebral ischemic diseases, cerebral neurocyte disorder, and dementia. The following method is employed as an in vitro evaluation system of the protective effect.
Under sterilized conditions, fetuses were taken from female Wistar rats 18 to 19 day-pregnant and the brains thereof were obtained by opening their cranial portions. The brains were placed in an ice-cold L-15 medium to microscopically separate the cerebral cortexes. After being cut into small pieces, the cerebral cortexes of approximately 30 rats were suspended in a mixture of 10 ml of a 0.25% trypsin solution and 0.2 ml of a 0.01% DNase solution to be cultured at 37° C. for 30 min. Then, immediately after addition of 2 ml of serum, the resultant was centrifuged at 1,200 rpm for 2 min. to separate a sediment. To the sediment, 7 ml of a DF medium (prepared by addition of 20 nM of transferrin, 5 μg/ml of insulin, 20 nM of progesterone, 60 nM of selenite, 50 U/ml of penicillin, and 50 U/ml of streptomycin to an equivalent admixture of Dulbecco modified Eagle medium and F-12 medium) was added to prepare a cell suspension which was pipetted 20 times using a 10 ml plastic pipette followed by filtration using a nylon mesh (pore size of 43 μm) to obtain isolated cells. The resulting isolated cells were diluted to 6.0×10^5 cells/ml with the DF medium, inoculated in a polylysine-precoated culture plate having 48 wells at 500 μl per well, and cultured at 37° C. in the presence of 5% CO2 for 1 day. The medium was changed with fresh DF medium on the second day, and 10 μl of a 0.5M glutamic acid solution in distilled water is added to each of the wells (the final concentration of the glutamic acid was 10 mM), and the cells were cultured for further 24 hours at 37° C. in the presence of 5% CO2. Each of the subject compounds was dissolved in distilled water, 10% or 100% DMSO, or 10% methanol and then a 5 μl aliquot was added to each well immediately before addition of glutamic acid. The enzymatic activity of lactate dehydrogenase (LDH) which leaked into the medium from the damaged cells was measured as an index of the neurocyte damage. With respect to each of the subject compounds, LDH leakage at the respective concentrations was measured and a dose-response curve was obtained by a modified Cochran-Armitige method to obtain the 50% effective dose (ED50) of each subject compound.
Background: LDH in the medium is a marker of cell lysis.

Test [2] concerns Rat Middle Cerebral Artery Occlusion Model. Nature of the test: Infarction Suppression Effect in Rat Middle Cerebral Artery Occlusion (MCAO) Model. The class given is in vivo, rat (Wistar). The note with it: i.p. 1 hour before occlusion and 1 hour after reopening, infarction volume 4 days after. From the text:
Remarkable cerebral edema accompanied with severe cerebrovascular lesions appears in the acute stage of human cerebral infarction. […] Corresponding to development of the lesion from the infarction area to surrounding tissues, the patient's life is seriously affected besides motor and mental functional loss in the conditions of the acute stage of cerebral infarction. A middle cerebral artery occlusion (MCAO; Middle Cerebral Artery Occlusion) model in Wistar rats using emboli with threads is well known as an experimental cerebral ischemia model in which clinical potency of a medicine can be accurately evaluated conforming to clinical conditions of human cerebral infarction [J. Koizumi, Japan Journal of Stroke, 8, 1 (1986)]. This MCAO model was employed as an in vivo evaluation system for evaluating the suppression effect of the compounds of the present invention on infarction development and was conducted according to the following method:
Under 1.0% halothane anesthesia induced by ether, the cervical region of each 10-week old rat was excised at center to expose the furcation of the right carotid while paying attention not to damage the vagus nerve. Centering around the furcation of the right carotid, the common carotid and the external carotid were separated from the surrounding tissues, each of them was ligated with 6-0 floss (Eto K.K.), and another floss was wound around the origin of the internal carotid so as to ligate and fix after inserting the embolus into the carotid. The common carotid was then incised to insert the ebolus toward the internal carotid to approximately 15 to 16 mm, and the proximal terminal of a nylon thread of the embolus was ligated and fixed to the internal carotid with the above mentioned floss. Due to the above procedure, the tip of the embolus exceeded the furcation of the middle cerebral artery, entered into the anterior cerebral artery to approximately 1 to 2 mm, and the entrance of the middle cerebral artery was occluded by the embolus body (made of a resin) for 2 hours. To reopen, the embolus with a thread was pulled away so as to restart the blood flow to the middle cerebral artery. Each of the subject compounds was intraperitoneally administered 1 hour before occlusion and 1 hour after reopening. Four days after the occlusion-reopening, each rat was systematically perfused with a saline from the heart and the brain was removed. After cooling each of the obtained brains with iced-water for 5 min., 7 coronary slices, taken at 2.0 mm intervals, of the cerebrum were prepared. Each slice was stained with TTC (triphenyltetrazolium chloride) and fixed with a neutral 5% formalin buffer solution, then the infarction area of the right cerebral hemisphere was measured by an image analyzer (Olympus) so as to evaluate the infraction expressed as a volume (mm3). The resulting infraction volume was compared with that of a control group to calculate the infarction suppression ratio.

A further test has as its system Capsaicin Induced Cough. Nature of the test: animal or person. The class given is in vivo. Particulars: Rattus norvegicus, ip; read-out: ED50, antitussive effect (dose exhibiting 50% cough suppression ratio).
For test [3], the system named is Acetic Acid-Induced Writhing. Description: Analgesic Activity Test by Acetic Acid-Induced Writhing Method. The class given is in vivo, mouse (ddY). Particulars: Mus musculus, sc; subcutaneous, 15 min. before acetic acid; writhings over 10 min. The method, then:
For this experiment, 5-week old ddY mice were employed. A 0.6% aqueous acetic acid solution was intraperitoneally administered to each of the mice at 0.1 ml/10 g body weight to evaluate the analgesic activity by employing the number of writhing reactions occurring over a 10 min.-period starting from 10 min. after administration as an index. Each of the subject compounds was subcutaneously administered to the back of each mouse 15 min. before the acetic acid administration.

On to `O=C(N[C@@H]1CC[C@H]2CN(CC3CC3)CC[C@]2(c2cccc(O)c2)C1)c1ccc2ccccc2c1` (relative stereo) [Compound 23, Trans-2-cyclopropylmethyl-4a-(3-hydroxyphenyl)-6β-(2-naphthoamido)decahydroisoquinoline], for which, in test [1], the EC50 came to 92 nM. Further, the Infarction suppression ratio in test [2] (Dose 0.3 mg/kg) amounted to 23%.
As for `CN(C(=O)/C=C/c1cccc(C(F)(F)F)c1)[C@H]1CC[C@H]2CN(CC3CC3)CC[C@]2(c2cccc(O)c2)C1` [Compound 8, (4aS, 8aR)-trans-2-cyclopropylmethyl-4a-(3-hydroxyphenyl)-6α-[N-methyl-(3-trifluoromethylcinnamamido)]decahydroisoquinoline], the Infarction suppression ratio in test [2] (Dose 0.03 mg/kg) is given as 26%; in test [2] (Dose 0.3 mg/kg), 43%; in test [2] (Dose 3 mg/kg), 32%. In the test on Capsaicin Induced Cough, the ED50 was 0.00539 mg/kg.
`CN(C(=O)CCCCCc1ccccc1)[C@H]1CC[C@H]2CN(CC3CC3)CC[C@]2(c2cccc(O)c2)C1` [Compound 10, (4aS, 8aR)-trans-2-cyclopropylmethyl-4a-(3-hydroxyphenyl)-6α-[N-methyl-(6-phenylhexanoamido)]decahydroisoquinoline]: the EC50 in test [1] is 43 nM. In addition, the Infarction suppression ratio in test [2] (Dose 0.03 mg/kg) is 19%; in test [2] (Dose 0.3 mg/kg) it was 21%; in test [2] (Dose 3 mg/kg), 7%. Besides, in test [3], the ED50 is 5 mg/kg.
In the case of `CC(C)CN(C(=O)Cc1ccc(Cl)c(Cl)c1)[C@H]1CC[C@@]2(O)CN(CC3CC3)CC[C@]2(c2cccc(O)c2)C1` (relative stereo) [Compound 14, Trans-2-cyclopropylmethyl-8a-hydroxy-4a-(3-hydroxyphenyl)-6α-[N-isobutyl-(3,4-dichlorophenylacetamido)]decahydroisoquinoline], in test [1], the EC50 came to 1100 nM. The compound also yielded an ED50 in test [3] of 5.78 mg/kg.
For `CC(C)CN(C(=O)CCCCCc1ccccc1)[C@H]1CC[C@H]2CN(CC3CC3)CC[C@]2(c2cccc(O)c2)C1` [Compound 11, (4aS, 8aR)-trans-2-cyclopropylmethyl-4a-(3-hydroxyphenyl)-6α-[N-isobutyl-(6-phenylhexanoamido)]decahydroisoquinoline], in test [1], the EC50 turned out to be 60900 nM. The results for the Infarction suppression ratio in test [2] (Dose 0.03 mg/kg) and in test [2] (Dose 3 mg/kg) were 5% and 33%, respectively.
The compound `O=C(N[C@@H]1CC[C@H]2CN(CCc3ccccc3)CC[C@]2(c2cccc(O)c2)C1)c1ccc2ccccc2c1` (relative stereo) [Compound 24, Trans-2-(2-phenetyl)-4a-(3-hydroxyphenyl)-6β-(2-naphthoamido)decahydroisoquinoline] came in with an ED50 in test [3] of 1.7 mg/kg.
As to `CN(C(=O)/C=C/c1cccc(C(F)(F)F)c1)[C@H]1CC[C@@]2(O)CN(CC3CC3)CC[C@]2(c2cccc(O)c2)C1` (relative stereo) [Compound 12, Trans-2-cyclopropylmethyl-8a-hydroxy-4a-(3-hydroxyphenyl)-6α-[N-methyl-(3-trifluoromethylcinnamamido)]decahydroisoquinoline], the EC50 in test [1] is 480 nM. Moreover, the Infarction suppression ratio in test [2] (Dose 0.3 mg/kg) turned out to be 64%; in test [2] (Dose 3 mg/kg), 48%. For the same compound, the ED50 in test [3] worked out at 1.49 mg/kg; with Capsaicin Induced Cough, 0.00607 mg/kg.
For the compound `CC(C)CN(C(=O)CCCCCc1ccccc1)[C@H]1CC[C@@]2(O)CN(CC3CC3)CC[C@]2(c2cccc(O)c2)C1` (relative stereo) [Compound 13, Trans-2-cyclopropylmethyl-8a-hydroxy-4a-(3-hydroxyphenyl)-6α-[N-isobutyl-(6-phenylhexanoamido)]decahydroisoquinoline], the EC50 in test [1] was determined as 3000 nM.
With `CN(C(=O)/C=C/c1cccc(C(F)(F)F)c1)[C@H]1CC[C@H]2CN(CC3CC3)CC[C@]2(c2cccc(O)c2)C1` (relative stereo) [Compound 1, Trans-2-cyclopropylmethyl-4a-(3-hydroxyphenyl)-6α-[N-methyl-(3-trifluoromethylcinnamamido)]decahydroisoquinoline], the Infarction suppression ratio in test [2] (Dose 0.03 mg/kg) came to 32%; in test [2] (Dose 0.3 mg/kg), 13%; in test [2] (Dose 3 mg/kg), 23%.
Regarding `O=C(Cc1ccc(Cl)c(Cl)c1)N[C@@H]1CC[C@H]2CN(CC3CC3)CC[C@]2(c2cccc(O)c2)C1` (relative stereo) [Compound 21, Trans-2-cyclopropylmethyl-4a-(3-hydroxyphenyl)-6β-(3,4-dichlorophenylacetamido)decahydroisoquinoline], in test [1], the EC50 came to 12600 nM.
Turning to `CN(C(=O)/C=C/c1ccoc1)[C@H]1CC[C@H]2CN(CC3CC3)CC[C@]2(c2cccc(O)c2)C1` (relative stereo) [Compound 25], the ED50 in test [3] was 0.83 mg/kg.
With `CN(C(=O)/C=C/c1cccc(C(F)(F)F)c1)[C@@H]1CC[C@@H]2CN(CC3CC3)CC[C@@]2(c2cccc(O)c2)C1` [Compound 9, (4aR, 8aS)-trans-2-cyclopropylmethyl-4a-(3-hydroxyphenyl)-6α-[N-methyl-(3-trifluoromethylcinnamamido)]decahydroisoquinoline], in test [1], the EC50 stood at 520 nM. Further, the Infarction suppression ratio in test [2] (Dose 0.3 mg/kg) stood at 28%; in test [2] (Dose 3 mg/kg) it was 7%. The ED50 in test [3] turned out to be 3.11 mg/kg.

For the origin of these results see patent publication US5776945A (priority 1995, dated 1998).
